Where two headings read alike, the source gives them in different places.
How the values were obtained:
[1] = test system: E. coli strain 1A1; assay: Broth dilution assay (antibiotic assay), growth at 600 nm after 24 h; assay type: cell-based
Procedure: (§1) To determine if the antibacterial activity of 5 was due to pH effects, an additional broth dilution assay was performed using sodium hydroxide as a positive control.
E. coli strain 1A1 [43] was obtained from the microbial strain repository at the Joint Bioenergy Institute at Lawrence Berkeley National Laboratory. A 10 mL culture in Luria Broth (LB) media was grown for 18 h at 37 °C with shaking at 200 rpm. The culture was then diluted into LB media to an absorbance of 0.05 at 600 nm, and added into the wells of a 96-well plate (first row = 190 µL, all other wells = 100 µL/well). Approximately 700 mg of IL was dissolved into 1 mL of methanol, and 10 µL of each IL solution was added to first row wells of the plate. A twofold serial dilution was performed down the plate by mixing and transferring 100 µL using a multi-channel pipette. To maintain isochoric conditions, 100 µL was discarded from bottommost wells. The plate was then incubated at 37 °C with shaking at 150 rpm. After 24 h incubation, E. coli growth was quantified at 600 nm using an Epoch Microplate Spectrophotometer (Gen5 software). […] All experiments were repeated 3–7 times and error bars in Fig. 5 represent standard deviation. Statistical F-test was performed to determine the appropriate t-test (i.e., equal or unequal variance) to analyze significant difference between IC50 data.

[2] = pH of LB media at the IC50 concentration; assay type: physicochemical; conditions: at IC50 against E. coli
Procedure: as §1

[3] = test system: Daphnia magna; assay: 48-h acute toxicity study on D. magna; assay type: in vivo; conditions: for IC50: Daphnia magna, 48 h, read-out: IC50 against D. magna
Procedure: Procedures for cultivating and performing acute toxicity assays with D. magna generally followed the US EPA protocol. Daphnia magna was cultured from stocks supplied by Aquatic Bio Systems Inc. (Fort Collins, CO). The organisms were cultured in 900-mL jars filled with moderately hard water from the recipe: 0.473 g CaSO4, 0.959 g NaHCO3, 1.223 g MgSO4·7H2O, and 0.039 g KCl per 10 L of deionized water. 2 mL of algae (Selenastrum capriconutum) containing 3.0 × 10^7 cells/mL were fed to D. magna on both Tuesdays and Thursdays with water changes as well as feedings on Saturdays. All glass jars were placed in a Thermo Scientific Precision incubator (Fischer Scientific, Hampton, NH) at a holding temperature of 20 °C and on a 12 h:12 h light:dark cycle. This procedure was conducted approximately a month prior to the beginning of the project. To prepare D. magna for use in acute experiments, three hundred adult daphnids were separated into five 1-L beakers with 60 daphnids each. These daphnids were used a week later in the experiment. All daphnid cultures followed the same protocol for feeding and water changes as mentioned previously.
A 48-h acute toxicity study was carried out to examine the toxic effects of 11 and 12 on D. magna, Glass jars were filled with moderately hard water and spiked with the appropriate concentration of IL from stock solution to a total volume of 50 mL. For each IL, 5 different concentrations were studied. Control jars were set up with only 50 mL of moderately hard water. Four replicates were used for each concentration and each replicate had four daphnids. The daphnids were placed into glass jars for each concentration of ILs. All glass jars were placed in a Thermo Scientific Precision incubator (Fischer Scientific, Hampton, NH) at a holding temperature of 20 °C and on a 12 h:12 h light:dark cycle. Mortality in each jar was recorded every 24 h.

[4] = E. coli strain 1A1, LB media, 24 h, 37 °C, read-out: IC50 (concentration of IL required to decrease bacterial growth by 50%)
[5] = Escherichia coli, 1A1, 24 h, E. coli strain 1A1, LB media, 24 h, 37 °C, read-out: IC50 (concentration of IL required to decrease bacterial growth by 50%)

SMILES: CCCC[N+](CCCC)(CCCC)CCCC [Compound 2, Tetrabutylammonium acetate]
- IC50 ([1]; Escherichia coli, 1A1, 24 h, read-out: IC50 (concentration of IL required to decrease bacterial growth by 50%), E. coli strain 1A1, LB media, 24 h, 37 °C): 13.2 ± 2.9 mM

SMILES: CCCC[N+](CCCC)(CCCC)CCCC [Compound 3, tetrabutylammonium bromide, reference compound]
- IC50 ([1]; read-out: IC50 (concentration of IL required to decrease bacterial growth by 50%), E. coli strain 1A1, LB media, 24 h, 37 °C): 10 ± 1.3 mM

SMILES: C[N+](C)(C)Cc1ccccc1 [Compound 4, Benzyltrimethylammonium acetate]
- IC50 [1, 4]: 47.8 ± 0.6 mM

SMILES: C[N+](C)(C)Cc1ccccc1 [Compound 5, benzyltrimethylammonium hydroxide, reference compound]
- pH of LB media at the IC50 concentration [2]: 8.5
- IC50 [1, 4]: 10.4 ± 0.3 mM

SMILES: COc1ccc(C[N+](C)(C)C)cc1 [Compound 6]
- IC50 [1, 5]: 11.6 ± 1.7 mM

SMILES: COc1cc(C[N+](C)(C)C)cc(OC)c1OC [Compound 7]
- IC50 [1, 5]: 22.2 ± 0.8 mM

SMILES: COc1ccc(C[N+](C)(C)C)cc1OC [Compound 8]
- IC50 [1, 5]: 48.2 ± 3.3 mM

SMILES: CC[N+](C)(CC)Cc1ccc(OC)c(OC)c1 [Compound 9, N-(3,4-Dimethoxybenzyl)-N-ethyl-N-methylethanaminium acetate]
- IC50 [1, 5]: 19.6 ± 0.4 mM

SMILES: CCC[N+](C)(CCC)Cc1ccc(OC)c(OC)c1 [Compound 10, N-(3,4-Dimethoxybenzyl)-N-methyl-N-propylpropan-1-ammonium acetate]
- IC50 [1, 5]: 17.7 ± 0.9 mM

SMILES: COc1ccc(C[N+](C)(C)C)cc1OC [Compound 11]
- fold reduction of toxicity of the methanesulfonate compared with the acetate anion (8) ([1]; E. coli, vanillin-derived N,N,N-trimethyl cation): 1.6 fold
- IC50 ([1]; Escherichia coli, 1A1, 24 h, read-out: IC50 (concentration of IL required to decrease bacterial growth by 50%)): 78.7 ± 2.5 mM
- fold by which IC50 against D. magna is lower than IC50 against E. coli ([3]; 0.319 mM vs 78.7 mM): approximately 250 fold
- IC50 [3]: 0.319 ± 0.066 mM

SMILES: COc1cc(C[N+](C)(C)C)cc(OC)c1OC [Compound 12]
- fold more toxic to D. magna than vanillin-derived IL 11 ([3]; 48-h acute toxicity): 2.6 fold
- IC50 [3]: 0.123 ± 0.012 mM

SMILES: [Na+].[OH-] [NaOH, sodium hydroxide, reference compound]
- pH of LB media at the IC50 concentration [2]: 9.4
- IC50 [1, 4]: 25.5 mM
